In general, solubility refers to the dissolved amount per volume that the medium holds. The low end stands for little dissolved substance, the high end for much dissolved substance. The term IC50 denotes the point on the concentration scale where inhibition reaches its midpoint.

The source of these data is US10626094B2 (La Jolla Institute of Allergy & Immunology, priority 2014, dated 2020).

Data set [1] is described as follows: aqueous solubility (buffer pH 5.0-7.4, PBS). In kind it is physicochemical. To be noted: for solubility: Pion's buffer.
A short description of data set [2]: serum creatinine (kidney function) in treated mice. In kind it is in vivo, mouse. To be noted: treated mice vs vehicle. The protocol:
Serum creatinine levels from mice treated with Compound D1 (ML400) or vehicle (mice shown in FIG. 9) were assessed using the QuantiChrom Creatinine Assay Kit from BioAssay Systems.

Data set [3] concerns obese C57BL/6 mice on HFD. As to the kind of experiment: IPGTT glucose tolerance in high-fat diet obese mice. In kind it is in vivo, mouse. To be noted: 30 mg/kg IP daily, 4 weeks, 2 g glucose/kg. As to the method:
Male C57BL/6 mice were maintained on HFD containing 60 kcal % fat for 3 months, followed by daily IP administration of 30 mg/kg Compound D1 or vehicle. After 4 weeks, IPGTT were performed using 2 g glucose/kg body weight. Mean±SEM is shown. *, p<0.05, Two-way ANOVA.

Data set [4] deals with VHR-1 (VH1-related phosphatase, VHR) (Homo sapiens (Human), UniProt P51452). In words: VHR-1 phosphatase selectivity dose response assay. In kind it is biochemical. From the text: (§1) Disclosed herein is a collection of small-molecule inhibitors of the low molecular weight protein tyrosine phosphatase (LMPTP). The assays utilized in the primary and secondary screening were designed to identify allosteric inhibitors of LMPTP. […] The structure of the compounds was further optimized to generate a series of inhibitors of LMPTP-A isoform, with high selectivity over the LMPTP-B isoform, LYP and VHR, and with cellular activity. In an aspect is provided a compound having the formula: […]
VHR-1 (VH1-related phosphatase, VHR), sequence (P51452 whole entry, canonical isoform): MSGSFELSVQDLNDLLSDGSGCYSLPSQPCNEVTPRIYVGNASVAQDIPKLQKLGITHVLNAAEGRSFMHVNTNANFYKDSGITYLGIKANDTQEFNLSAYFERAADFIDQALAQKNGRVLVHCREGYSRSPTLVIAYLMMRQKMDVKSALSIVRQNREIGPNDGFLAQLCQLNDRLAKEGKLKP
(§2) LYP-1 and VHR-1 dose response assays to assess selectivity of Compound D1 against these non-homologous phosphatases.

The nature of data set [5]: hepatic microsomal stability, human liver microsomes. In kind it is in vitro ADME. The text has this:
(§3) In the course of this investigation many compounds with similar potencies in the LMPTP (OMFP) assay were found. In order to determine which compound would be the best candidate for in vivo studies, an abbreviated ADME panel was ran on these compounds, a tabulation of the most interesting data on this set of compounds is illustrated in Table 3 below. From the hepatic microsome stability data the candidate selected for in vivo studies was Compound D1.
(§4) The microsomal stability assay is commonly used to rank compounds according to their metabolic stability. This assay addresses the pharmacologic question of how long the parent compound will remain circulating in plasma within the body.
A general note: Liver microsomes are vesicles of endoplasmic reticulum, rich in cytochrome P450 enzymes.

Data set [6] is described as follows: serum alanine transaminase / aspartate transaminase (liver function) in treated mice. The format is in vivo, mouse. The settings on record: treated mice vs vehicle. The protocol:
Serum alanine transaminase or aspartate transaminase levels from mice treated with Compound D1 (ML400) or vehicle (mice shown in FIG. 10) were assessed using EnzyChrom Assay Kits from BioAssay Systems.

Data set [7] in a line: hepatic microsomal stability, mouse liver microsomes. In kind it is in vitro ADME.
Text: as §3, §4

For data set [8], the target named is LMPTP-A (Low Molecular Weight Protein Tyrosine Phosphatase-A) enzyme (Homo sapiens (Human), UniProt P24666). As to the kind of experiment: LMPTP primary screening / LMPTP (OMFP) enzyme inhibition assay, fluorescence intensity. The format is biochemical. Put shortly:
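0.625 nM LMPTP-A with 400 μM OMFP substrate in 50 mM Bis-Tris pH 6.0, 1 mM DTT, 0.01% Triton X-100, […]. Compounds at 20 μM final. Incubated 50 min at room temperature in the dark; fluorescence intensity read.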

The target in data set [9] is LYP-1 (lymphoid phosphatase, LYP) (Homo sapiens (Human), UniProt Q9Y2R2). As to the kind of experiment: LYP-1 phosphatase selectivity dose response assay. In kind it is biochemical.
LYP-1 (lymphoid phosphatase, LYP), sequence (Q9Y2R2 whole entry, species assumed): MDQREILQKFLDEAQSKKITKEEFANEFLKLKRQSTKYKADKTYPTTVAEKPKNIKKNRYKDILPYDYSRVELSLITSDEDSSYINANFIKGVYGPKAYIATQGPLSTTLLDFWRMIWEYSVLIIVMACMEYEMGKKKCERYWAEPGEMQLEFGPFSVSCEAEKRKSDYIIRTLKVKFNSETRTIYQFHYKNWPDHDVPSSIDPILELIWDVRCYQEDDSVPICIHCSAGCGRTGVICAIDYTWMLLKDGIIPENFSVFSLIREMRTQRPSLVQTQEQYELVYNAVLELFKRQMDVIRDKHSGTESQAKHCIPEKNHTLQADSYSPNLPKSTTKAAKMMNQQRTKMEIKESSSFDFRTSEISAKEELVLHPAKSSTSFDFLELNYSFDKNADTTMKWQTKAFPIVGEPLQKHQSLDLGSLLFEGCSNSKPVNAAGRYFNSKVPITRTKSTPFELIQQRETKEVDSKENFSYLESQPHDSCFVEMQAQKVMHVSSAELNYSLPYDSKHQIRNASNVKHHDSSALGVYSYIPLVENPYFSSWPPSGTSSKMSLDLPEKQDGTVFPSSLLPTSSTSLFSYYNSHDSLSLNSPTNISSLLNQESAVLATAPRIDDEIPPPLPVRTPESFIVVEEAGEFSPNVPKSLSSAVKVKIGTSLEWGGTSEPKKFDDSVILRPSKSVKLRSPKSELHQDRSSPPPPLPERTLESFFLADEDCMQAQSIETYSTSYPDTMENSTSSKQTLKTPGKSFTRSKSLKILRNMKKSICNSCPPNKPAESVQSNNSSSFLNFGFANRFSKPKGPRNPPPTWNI
Text: as §1, §2

The subject of a further data set is 3T3-L1 cells. In words: insulin-based mouse 3T3-L1 adipogenesis assay (AdipoRed). The settings on record: 10 μM compound. The format is cell-based. The protocol:
The probe Compound D1 was also profiled in an insulin-based mouse 3T3-L1 adipogenesis assay. In this assay, 3T3-L1 pre-adipocytes are grown to 2-days post-confluence in DMEM with 10% bovine calf serum, and then induced to differentiate to adipocytes following stimulation for 2 days with an induction cocktail containing 1 μg/ml insulin, 1 μM dexamethasone, and 0.5 mM 3-isobutyl-1-methylxanthine in DMEM containing 10% fetal bovine serum (FBS).^44 2 days later, the media is replaced with DMEM with 10% FBS and 1 μg/ml insulin, and after 2 additional days, the media is replaced with DMEM with 10% FBS for 2 additional days, at which point adipogenesis is measured using the AdipoRed Adipogenesis Assay Reagent from Lonza, according to the manufacturer's instructions. In brief, the assay reagent is added to the wells containing cells, where it partitions into the fat droplets of differentiated adipocytes, and emits fluorescence at 572 nm that can be detected with a plate-reader. To test the effect of probe Compound D1, cells were plated into 48-well plates and allowed to grow to confluence. Cells were then treated with 10 μM Compound D1 or 0.025% DMSO, and after 2 days induced to differentiate in the presence of 10 μM Compound D1 or 0.025% DMSO. Fresh compound or DMSO was added during each media replacement.

For the next data set, the target named is LMPTP (Homo sapiens (Human), UniProt P24666). In words: LMPTP enzyme inhibition assay with pNPP as substrate. In kind it is biochemical. The settings on record: n = 2; AID 743308; read-out: LMPTP Orthogonal assay IC50.
LMPTP, sequence (P24666 whole entry): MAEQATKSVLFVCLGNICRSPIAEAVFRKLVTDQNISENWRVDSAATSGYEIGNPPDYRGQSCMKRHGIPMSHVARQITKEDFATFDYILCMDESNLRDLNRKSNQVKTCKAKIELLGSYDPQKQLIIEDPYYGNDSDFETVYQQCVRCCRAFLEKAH

Read-outs that look alike come from different tables or passages of the source. A value given as a limit tells only on which side of the number the result lay.

LMPTP-A (Low Molecular Weight Protein Tyrosine Phosphatase-A) enzyme, sequence (P24666 whole entry): as above

`COc1ccc(-c2cc(NCCCN3CCCCC3)c3ccccc3n2)cc1` [Compound D1, 2-(4-methoxyphenyl)-N-(3-(piperidin-1-yl)propyl)quinolin-4-amine]: the “solubility in PBS” value in [1] (PBS, versus aqueous buffer) is “comparable”. Moreover, the solubility in data set [1] (aqueous buffer, pH 5.0) is over 112 µg/mL; in data set [1] (pH 6.2, aqueous buffer) it was over 112 µg/mL; in [1] (pH 7.4, aqueous buffer), over 112 µg/mL. For the same compound, the “concentration achieved in aqueous buffer” value in data set [1] (pH range of 5.0-7.4) is recorded as 18-20 ×IC50. In [2], the “kidney function (serum creatinine)” value is listed as “does not Affect Kidney Function”. Also, in data set [3], the “glucose tolerance (IPGTT)” value was “Improves Glucose Tolerance”. The Fold-Selective in [4] (LMPTP over VHR-1) and in [9] (LMPTP over LYP-1) was >60-fold in each case. In addition, the IC50 in data set [4] (n = 2, AID743310, read-out: Anti-target VHR-1 IC50) is over 80000 nM; in data set [8] (LMPTP-A, OMFP substrate, method of Example 2, read-out: IC50), 801 to 5000 nM; in [8] (Table 2 quinoline series, S sample (synthesized de novo), read-out: LMPTP (OMFP) (IC50)), 1680 nM; in data set [8] (Table 5, n = 4, AID686962, AID743307, read-out: LMPTP IC50), 1680 ± 150 nM; in data set [9] (n = 2, AID743309, read-out: Anti-target LYP-1 IC50), over 80000 nM; on LMPTP it was 3520 ± 330 nM. Further, the “Hepatic Microsome Stability % Remaining @ 1 hr” value stood at 61.56% in [5] (Human microsomes, 1 hr) and 48.75% in data set [7] (Mouse microsomes, 1 hr). Also, the microsomal stability entry in [5] (human liver microsomes after 1 hour) and in data set [7] (mouse liver microsomes after 1 hour) was “moderate stability” each time. For the same compound, in data set [6], the “liver function (serum alanine transaminase or aspartate transaminase)” value was “does not Affect Liver Function”. Also, in the data set with 3T3-L1 cells, the 3T3-L1 adipogenesis entry was “completely abolished”.
